Reference: US20260132129A1 (Genesis Therapeutics, Inc., priority 2022, published 2026)

Molecular target: T1, PI3Kα H1047R (T47D cells) (Homo sapiens, UniProt P42336, H1047R)
T1 construct: endogenous in cells; host or cells: T47D cells
Assay: PI3Kα cellular assay: pAKT HTRF in T47D cells after EGF stimulation
Format: cell-based
Conditions: for IC50: T47D cells (PI3Kα H1047R), pAKT S473 HTRF
Procedure, shortened: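 pAKT read by HTRF in lysates of EGF-stimulated (20 ng/mL, 10 min) T47D H1047R cells. Before stimulation, serum-starved cells (16 h) received compound for 1 h at 37 °C, dosed from 10,000 nM down to 0.5 nM in 3-fold steps.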

[1] = selectivity of T47D (H1047R) over SKBR3 (WT) pAKT IC50
[2] = 1 hr compound, 20 ng/ml EGF 10 min
[3] = selectivity T47D (H1047R) over SKBR3 (WT), pAKT HTRF

T1 sequence (P42336 whole entry H1047R): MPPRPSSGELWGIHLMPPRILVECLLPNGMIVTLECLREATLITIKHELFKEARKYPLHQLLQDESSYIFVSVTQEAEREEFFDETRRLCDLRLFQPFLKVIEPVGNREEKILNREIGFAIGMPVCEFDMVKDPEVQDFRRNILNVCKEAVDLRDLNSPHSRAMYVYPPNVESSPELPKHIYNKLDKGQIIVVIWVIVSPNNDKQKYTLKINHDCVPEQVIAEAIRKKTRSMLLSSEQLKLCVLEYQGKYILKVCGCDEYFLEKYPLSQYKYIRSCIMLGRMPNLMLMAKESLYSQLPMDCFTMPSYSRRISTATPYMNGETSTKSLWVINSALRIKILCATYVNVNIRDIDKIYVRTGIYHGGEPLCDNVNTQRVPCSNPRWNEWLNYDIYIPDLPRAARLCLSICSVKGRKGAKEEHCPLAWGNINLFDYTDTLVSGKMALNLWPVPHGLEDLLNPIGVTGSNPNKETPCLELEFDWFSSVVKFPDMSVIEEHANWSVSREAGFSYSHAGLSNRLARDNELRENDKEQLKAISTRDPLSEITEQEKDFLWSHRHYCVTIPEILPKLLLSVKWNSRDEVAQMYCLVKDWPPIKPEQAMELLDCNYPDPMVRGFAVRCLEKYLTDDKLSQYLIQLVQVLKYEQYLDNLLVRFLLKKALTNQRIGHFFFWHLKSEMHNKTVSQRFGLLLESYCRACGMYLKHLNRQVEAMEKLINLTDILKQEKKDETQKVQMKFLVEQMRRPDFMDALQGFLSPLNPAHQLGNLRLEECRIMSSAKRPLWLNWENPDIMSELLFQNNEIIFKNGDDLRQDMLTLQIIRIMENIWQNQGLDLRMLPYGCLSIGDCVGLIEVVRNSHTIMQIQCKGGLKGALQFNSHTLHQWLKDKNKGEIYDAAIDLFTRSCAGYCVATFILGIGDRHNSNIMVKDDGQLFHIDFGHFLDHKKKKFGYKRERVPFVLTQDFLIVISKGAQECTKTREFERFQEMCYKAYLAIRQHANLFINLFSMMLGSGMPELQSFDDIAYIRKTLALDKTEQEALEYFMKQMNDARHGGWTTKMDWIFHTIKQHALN
T1 sequence (P27986 whole entry partner): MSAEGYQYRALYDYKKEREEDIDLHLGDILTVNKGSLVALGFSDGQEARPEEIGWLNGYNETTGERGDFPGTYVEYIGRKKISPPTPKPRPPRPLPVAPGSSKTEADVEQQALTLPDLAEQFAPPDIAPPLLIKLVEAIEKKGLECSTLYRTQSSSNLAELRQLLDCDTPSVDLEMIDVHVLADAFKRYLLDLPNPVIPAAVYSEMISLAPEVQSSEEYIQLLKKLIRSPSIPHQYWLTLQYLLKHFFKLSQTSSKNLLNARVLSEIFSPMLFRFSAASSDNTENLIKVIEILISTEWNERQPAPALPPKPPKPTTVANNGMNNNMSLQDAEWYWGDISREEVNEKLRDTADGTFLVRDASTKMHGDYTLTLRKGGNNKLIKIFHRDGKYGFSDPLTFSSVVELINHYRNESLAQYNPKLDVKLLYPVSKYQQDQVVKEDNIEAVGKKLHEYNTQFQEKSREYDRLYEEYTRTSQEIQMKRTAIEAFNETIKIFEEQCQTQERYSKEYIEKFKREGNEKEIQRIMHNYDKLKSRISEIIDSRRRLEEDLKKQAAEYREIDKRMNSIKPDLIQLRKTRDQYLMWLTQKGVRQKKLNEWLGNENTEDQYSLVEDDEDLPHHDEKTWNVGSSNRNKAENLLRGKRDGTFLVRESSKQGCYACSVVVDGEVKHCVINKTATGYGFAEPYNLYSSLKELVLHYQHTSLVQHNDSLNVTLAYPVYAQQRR

Structure (SMILES)	IC50 (EGF stimulation)	T47D pAKT S473 HTRF IC50 (H1047R): T47D (H1047R) selectivity over SKBR3 (WT) [1]	IC50 [2]	T47D pAKT S473 HTRF IC50 (H1047R): T47D (H1047R) selectivity over SKBR3 (WT) [3]
C[C@@H]1C[C@H](C)CN(c2cc(=O)n3cc(C(F)(F)F)cc([C@@H](C)Nc4ccccc4C(=O)O)c3n2)C1 [Compound 1036]	< 100 nM	A (A denotes >20-fold)	–	–
Cc1cc(C(C)Nc2cccc(CO)c2C(=O)O)c2nc(-c3ccc4c(c3)c(C)nn4C)cc(=O)n2c1 (stereo not shown) [Compound 933]	> 2000 nM	C (C denotes ≤5-fold)	–	–
Cc1cc([C@H](C)Nc2cccc3c2CCC(=O)N3)c2nc(N3CCOCC3)cc(=O)n2c1 [Compound 604]	–	–	> 2000 nM	C (C denotes ≤5-fold)
Cc1cc([C@H](C)Nc2ccccc2S(N)(=O)=O)c2nc(-c3ccc(C4CCNCC4)nc3)c(C)c(=O)n2c1 [Compound 1345]	–	–	–	C (C denotes ≤5-fold)
Cc1cc(C(C)Nc2ccccc2C(=O)O)c2nc(N3CCSCC3)cc(=O)n2c1 (stereo not shown) [Compound 140]	–	–	100 to 500 nM	A (A denotes >20-fold)
Cc1cc([C@H](C)Nc2ccccc2S(N)(=O)=O)c2nc(-c3ccc(C4CCOCC4)nc3)c(C)c(=O)n2c1 [Compound 1295]	< 100 nM	–	–	A (A denotes >20-fold)
Cc1cc([C@@H](C)Nc2ccccc2C(=O)NS(=O)(=O)N(C)C)c2nc(-c3cccc(F)c3)c(C)c(=O)n2c1 [Compound 1346]	–	–	–	C (C denotes ≤5-fold)
Cc1cc(C(C)Nc2ccccc2S(N)(=O)=O)c2nc(-c3cccc(F)c3)c(C)c(=O)n2c1 (stereo not shown) [Compound 1248]	100 to 500 nM	–	–	A (A denotes >20-fold)
C#Cc1ccc(-c2nc3c(C(C)Nc4ccccc4C(=O)O)cc(C)cn3c(=O)c2C)cn1 (stereo not shown) [Compound 1191]	< 100 nM	–	–	A (A denotes >20-fold)
Cc1cc([C@H](C)Nc2ccccc2C(=O)O)c2nc(-c3ccc(-c4ccc5oc(=O)n(C)c5c4)c(C)c3)c(C)c(=O)n2c1 [Compound 1276]	< 100 nM	–	–	C (C denotes ≤5-fold)
Cc1cc([C@@H](C)Nc2ccccc2C(=O)O)c2nc(N3CC4CC(F)(F)CC4C3)c(C)c(=O)n2c1 (stereo partly shown) [Compound 849]	100 to 500 nM	A (A denotes >20-fold)	–	–
Cc1cc(C(C)Nc2ccccc2C(=O)O)c2nc(Nc3ccc4[nH]c(=O)oc4c3)cc(=O)n2c1 (stereo not shown) [Compound 548]	–	–	> 2000 nM	C (C denotes ≤5-fold)
Cc1cc(C(C)Nc2ccccc2S(N)(=O)=O)c2nc(N3C[C@@H](C)O[C@@H](C)C3)cc(=O)n2c1 (stereo partly shown) [Compound 729]	100 to 500 nM	A (A denotes >20-fold)	–	–
Cc1cc(C(C)Nc2ccccc2C(=O)O)c2nc(-c3ccc4c(C)nn(C)c4c3)cc(=O)n2c1 (stereo not shown) [Compound 818]	< 100 nM	A (A denotes >20-fold)	–	–
Cc1cc(C(C)Nc2ccccc2C(=O)O)c2nc(-c3cnc4[nH]nc(-c5ccccc5)c4c3)cc(=O)n2c1 (stereo not shown) [Compound 351]	–	–	> 2000 nM	C (C denotes ≤5-fold)
Cc1cc([C@H](C)Nc2ccccc2C(=O)O)c2nc(-c3c(C)ccc4c3cnn4C)cc(=O)n2c1 [Compound 815]	> 2000 nM	C (C denotes ≤5-fold)	–	–
Cc1cc([C@@H](C)Nc2ccccc2S(C)(=O)=O)c2nc(-c3ccc4c(C)cn(C)c4c3)c(C)c(=O)n2c1 [Compound 1061]	–	–	–	C (C denotes ≤5-fold)
Cc1cc([C@@H](C)Nc2ccccc2C(=O)O)c2nc(-c3ccc4[nH]c(=O)sc4c3)c(C)c(=O)n2c1 [Compound 945]	< 100 nM	A (A denotes >20-fold)	–	–
Cc1cc([C@@H](C)Nc2ccccc2C(=O)O)c2nc(N3Cc4ccccc4[C@@H]3C)cc(=O)n2c1 (single isomer, unassigned) [Compound 652]	< 100 nM	–	–	–
Cc1cc(C(C)Nc2ccccc2S(N)(=O)=O)c2nc(-c3ccncc3)cc(=O)n2c1 (stereo not shown) [Compound 346]	–	–	500 to 2000 nM	A (A denotes >20-fold)
CC(=O)N1CCC(c2cc(=O)n3cc(C)cc([C@@H](C)Nc4ccccc4C(=O)O)c3n2)CC1 [Compound 522]	–	–	> 2000 nM	C (C denotes ≤5-fold)
Cc1cc([C@@H](C)Nc2ccccc2C(=O)O)c2nc(C#CC3CC3)cc(=O)n2c1 [Compound 1224]	–	–	–	C (C denotes ≤5-fold)
Cc1cc(C(C)Nc2cc(F)ccc2C(=O)O)c2nc(-c3ccnc(C4CC4)c3)c(C)c(=O)n2c1 (stereo not shown) [Compound 1182]	< 100 nM	–	–	A (A denotes >20-fold)

Structure (SMILES)	IC50 (EGF stimulation)	T47D pAKT S473 HTRF IC50 (H1047R): T47D (H1047R) selectivity over SKBR3 (WT) [1]	IC50 [2]	T47D pAKT S473 HTRF IC50 (H1047R): T47D (H1047R) selectivity over SKBR3 (WT) [3]
Cc1cc([C@@H](C)Nc2ccnnc2C(=O)O)c2nc(N3CCOCC3)cc(=O)n2c1 [Compound 377]	–	–	> 2000 nM	C (C denotes ≤5-fold)
Cc1cc([C@H](C)Nc2cccc3[nH]nnc23)c2nc(N3CCOCC3)cc(=O)n2c1 [Compound 745]	–	C (C denotes ≤5-fold)	–	–
Cc1cc([C@H](C)Nc2ccccc2C(=O)O)c2nc(-c3ccc4c(c3)c(C(F)(F)F)nn4C)cc(=O)n2c1 [Compound 738]	> 2000 nM	C (C denotes ≤5-fold)	–	–
CCC(=O)N=S(C)(=O)c1ccccc1N[C@@H](C)c1cc(C)cn2c(=O)cc(N3CCOCC3)nc12 (stereo partly shown) [Compound 829]	> 2000 nM	C (C denotes ≤5-fold)	–	–
Cc1cc(C(C)Nc2ccccc2C(=O)O)c2nc(-c3ccc4[nH]nc(-c5ccccn5)c4c3)cc(=O)n2c1 (stereo not shown) [Compound 318]	–	–	> 2000 nM	C (C denotes ≤5-fold)
Cc1cc([C@@H](C)Nc2ccccc2C(=O)O)c2nc(-c3ccc(C(=O)NO)cc3)cc(=O)n2c1 [Compound 501]	–	–	> 2000 nM	C (C denotes ≤5-fold)
Cc1cc(C(C)Nc2ccccc2C(=O)O)c2nc(-c3ccc4c(c(N)nn4C)c3C)c(C)c(=O)n2c1 (stereo not shown) [Compound 706]	500 to 2000 nM	B (B denotes 20-fold≥value>5-fold)	–	–
Cc1cc([C@H](C)Nc2ccccc2C(=O)O)c2nc(N3CCC(C)(C)CC3)cc(=O)n2c1 [Compound 728]	> 2000 nM	C (C denotes ≤5-fold)	–	–
Cc1cc([C@H](C)Nc2ccccc2-c2ccnnc2)c2nc([C@@H]3CCCOC3)c(C)c(=O)n2c1 [Compound 1407]	< 100 nM	–	–	A (A denotes >20-fold)
Cc1cc([C@H](C)Nc2ccccc2S(N)(=O)=O)c2nc(N3Cc4cccnc4C3)c(C)c(=O)n2c1 [Compound 1324]	–	–	–	A (A denotes >20-fold)
Cc1cc([C@H](C)Nc2ccnnc2C(=O)O)c2nc(N3CCOCC3)cc(=O)n2c1 [Compound 378]	–	–	> 2000 nM	C (C denotes ≤5-fold)
Cc1cc([C@@H](C)Nc2ccccc2C(=O)O)c2nc(-c3ccc4c(C)nn(C)c4c3)cc(=O)n2c1 [Compound 819]	< 100 nM	A (A denotes >20-fold)	–	–
Cc1cc([C@H](C)Nc2ccccc2C(=O)O)c2nc(-c3cnc(C)c(Cl)c3)cc(=O)n2c1 [Compound 1158]	> 2000 nM	–	–	C (C denotes ≤5-fold)
Cc1cc(C(C)Nc2ccccc2C(=O)O)c2nc(C3C[C@@H](C)O[C@@H](C)C3)c(C)c(=O)n2c1 (stereo partly shown) [Compound 901]	–	A (A denotes >20-fold)	–	–
Cc1cc(C(C)Nc2ccccc2C(=O)O)c2nc(C3CCC(NS(C)(=O)=O)CC3)c(C)c(=O)n2c1 (stereo not shown) [Compound 544]	–	–	> 2000 nM	C (C denotes ≤5-fold)
Cc1cc([C@H](C)Nc2ccccc2C(=O)O)c2nc(-c3ccc4c(c3)c(C(F)F)nn4C)cc(=O)n2c1 [Compound 808]	> 2000 nM	C (C denotes ≤5-fold)	–	–
Cc1cc(C(C)Nc2ccccc2C(=O)O)c2nc(-c3ccc4c(c3)c(C3CC3)nn4C)cc(=O)n2c1 (stereo not shown) [Compound 736]	100 to 500 nM	A (A denotes >20-fold)	–	–
Cc1cc([C@H](C)Nc2ccccc2S(N)(=O)=O)c2nc(-c3ccc(F)cc3)cc(=O)n2c1 [Compound 587]	–	–	> 2000 nM	C (C denotes ≤5-fold)
Cc1cc([C@H](C)Nc2ccccc2-c2ccnnc2)c2nc(N3CCOCC3)cc(=O)n2c1 [Compound 496]	–	–	500 to 2000 nM	C (C denotes ≤5-fold)
CC[C@H](Nc1ccccc1C(=O)O)c1cc(C)cn2c(=O)cc(N3CCOCC3)nc12 [Compound 294]	–	–	500 to 2000 nM	C (C denotes ≤5-fold)
Cc1cc([C@@H](C)Nc2ccccc2C(=O)O)c2nc(-c3ccc(F)cc3)cc(=O)n2c1 (single isomer, unassigned) [Compound 424]	–	–	< 100 nM	A (A denotes >20-fold)
CC1=CN2C(=O)CC(N3CCOCC3)N=C2C(C(C)Nc2ccccc2)=C1 (stereo not shown) [Compound 47]	–	–	> 2000 nM	C (C denotes ≤5-fold)
